Measured values: PMC3366211, “Leishmanicidal Activity of Nine Novel Flavonoids from Delphinium staphisagria” (The Scientific World Journal, 2012)
Where two headings read alike, the source gives them in different places.

Tests used:
L. infantum = assay: Infection assay in J774.2 macrophages; format: cell-based, Leishmania infantum; conditions: IC25 concentration; for infection rate decrease, percentage of inhibition capacity: with respect to control
Procedure: (§1) J774.2 macrophage cells were grown under the same conditions expressed in amastigote forms assay during two days. Afterwards, the cells were infected in vitro with promastigote forms of L. infantum and L. braziliensis, at a ratio of 10 : 1. The drugs (IC25 concentrations) were added immediately after infection and were incubated for 12 hours at 37°C in 5% CO2. The nonphagocytosed parasites and the drugs were removed by washing, and then the infected cultures were grown for 10 days in fresh medium. Fresh culture medium was added every 48 h. The drug activity was determined from the percentage of infected cells and the number of amastigotes per infected cell (in treated and untreated cultures) in methanol-fixed and Giemsa-stained preparations. The percentage of infected cells and the mean number of amastigotes per infected cell were determined by analyzing 200 host cells distributed in randomly chosen microscopic fields. Values are the average of three separate determinations.

[1] = tested on: L. infantum promastigotes; assay: Ultrastructural alterations (TEM); format: cell-based, Leishmania infantum; conditions: IC25, 96 hours
Procedure: (§2) The parasites were cultured at a density of 5 × 10^5 cells/mL in MTL medium, and the cultures contained drugs at the IC25 concentration.
(§3) After 96 hours, those cultures were centrifuged at 400 g for 10 min, and the pellets produced were washed in PBS and then mixed with 2% (v/v) P-formaldehyde-glutaraldehyde in 0.05 M cacodylate buffer (pH 7.4) for 4 hours at 4°C. After that, the pellets were prepared for TEM employing the technique of González et al..

[2] = tested on: L. infantum promastigotes; assay: Metabolite excretion (1H-NMR); format: cell-based, Leishmania infantum; conditions: IC25, 96 hours, vs control
Procedure: (§4) Cultures of L. infantum and L. braziliensis promastigotes (initial concentration 5 × 10^5 cells/mL) received IC25 concentrations of the compounds (except for control cultures). After incubation for 96 hours at 28°C, the cells were centrifuged at 400 g for 10 min. Then supernatants were collected to determine the excreted metabolites using ^1H-NMR, and, eventually, chemical displacements were expressed in parts per million (ppm), using sodium 2,2-dimethyl-2-silapentane-5-sulphonate as the reference signal. The chemical displacements used to identify the respective metabolites were consistent with those described by Fernández-Becerra et al.

[3] = tested on: L. braziliensis promastigote forms; assay: Promastigote forms assay; format: cell-based, Leishmania braziliensis; conditions: for SI Promastigote forms: IC50 macrophages/IC50 parasite form; for IC50: 72 h; for number of times that compound SI exceeds the reference drug SI, Promastigote forms: in brackets, reference Glucantime
Procedure: (§5) The compounds obtained were dissolved in the culture medium, at dosages of 100, 50, 25, 10, and 1 μM. The effects of each compound against promastigote forms were tested at 72 hours using a Neubauer haemocytometric chamber. The antileishmanial effect is expressed as the IC50, that is, the concentration required to give 50% inhibition, calculated by linear regression analysis from the Kc values of the concentrations employed.

L. braziliensis = assay: Infection assay in J774.2 macrophages; format: cell-based, Leishmania braziliensis; conditions: IC25 concentration; for infection rate decrease, percentage of inhibition capacity: with respect to control
Procedure: as §1

[4] = tested on: L. braziliensis promastigotes; assay: Metabolite excretion (1H-NMR); format: cell-based, Leishmania braziliensis; conditions: IC25, 96 hours, vs control
Procedure: as §4

[5] = tested on: L. infantum axenic amastigote forms; assay: Axenic amastigote forms assay; format: cell-based, Leishmania infantum; conditions: for SI Axenic amastigote forms: IC50 macrophages/IC50 parasite form; for IC50: 48 hours per method (72 h); for number of times that compound SI exceeds the reference drug SI, Axenic amastigote forms: in brackets, reference Glucantime
Procedure: (§6) Axenic amastigotes forms of L. infantum and L. braziliensis were cultured following the methodology described previously by Moreno et al.. Thus, promastigote transformation to amastigotes was obtained after three days of culture in M199 medium (Invitrogen, Leiden, The Netherlands) supplemented with 10% heat-inactivated FCS, 1 g/L β-alanine, 100 mg/L L-asparagine, 200 mg/L sacarose, 50 mg/L sodium pyruvate, 320 mg/L malic acid, 40 mg/L fumaric acid, 70 mg/L succinic acid, 200 mg/L α-ketoglutaric acid, 300 mg/L citric acid, 1.1 g/L sodium bicarbonate, 5 g/L MES, 0.4 mg/L hemin, and 10 mg/L gentamicin pH 5.4 at 37°C. The effect of each compound against axenic amastigotes forms was tested at 48 hours using a Neubauer haemocytometric chamber. The antileishmanial effect is expressed as the IC50.

[6] = tested on: L. braziliensis intracellular amastigote forms; assay: Intracellular amastigote forms assay in J774.2 macrophages; format: cell-based, Leishmania braziliensis; conditions: for SI Intracellular amastigote forms / number of times that compound SI exceeds the reference drug SI, Intracellular amastigote forms: L. braziliensis; for SI Intracellular amastigote forms: IC50 macrophages/IC50 parasite form; for number of times that compound SI exceeds the reference drug SI, Intracellular amastigote forms: in brackets, reference Glucantime; for IC50: L. braziliensis in J774.2 macrophages, 72 h
Procedure: (§7) Cells were seeded at a density of 1 × 10^4 cells/well in 24-well microplates (Nunc) with rounded coverslips on the bottom and cultured for 2 days. Afterwards the cells were infected in vitro with promastigote forms of L. infantum and L. braziliensis, at a ratio of 10 : 1 during 24 hours. The non-phagocytosed parasites were removed by washing, and then the drugs (at 1, 10, 25, 50, 100 μM) were added. Macrophages with the drugs were incubated for 72 hours at 37°C in 5% CO2.
(§8) Drug activity was determined on the basis of number of amastigotes in treated and untreated cultures in methanol-fixed and Giemsa-stained preparations. The number of amastigotes was determined by analyzing 200 host cells distributed in randomly chosen microscopic fields. The antileishmanial effect is expressed as the IC50 values are the means of three separate determinations.

J774.2 macrophages = assay: Cytotoxicity test for macrophages (flow cytometry); format: cell-based, BALB/c rat; conditions: J774.2 macrophages after 72 h of culture, read-out: Macrophage toxicity IC50
Procedure: J774.2 macrophages (ECACC number 91051511) were originally obtained from a tumour in a female BALB/c […] in 1968. The cytotoxicity test for macrophages was performed according to the methodology of González et al.. After 72 hours of treatment, cell viability was determined by flow cytometry. Thus, 100 μL/well of propidium iodide solution ([…]) was added and incubated for 10 min at 28°C in darkness. Afterwards, 100 μL/well of fluorescein diacetate (100 ng/mL) was added and incubated under the same conditions. Finally, the cells were recovered by centrifugation at 400 g for 10 min and the precipitate washed with phosphate buffered saline (PBS). Flow cytometric analysis was performed with a FACSVantage flow cytometer (Becton Dickinson). The percentage viability was calculated in comparison with the control culture. The IC50 was calculated using linear regression analysis from the Kc values of the concentrations employed.

[7] = tested on: L. braziliensis axenic amastigote forms; assay: Axenic amastigote forms assay; format: cell-based, Leishmania braziliensis; conditions: for SI Axenic amastigote forms: IC50 macrophages/IC50 parasite form; for IC50: 48 hours per method (72 h); for number of times that compound SI exceeds the reference drug SI, Axenic amastigote forms: in brackets, reference Glucantime
Procedure: as §6

[8] = tested on: L. infantum promastigote forms; assay: Promastigote forms assay; format: cell-based, Leishmania infantum; conditions: for SI Promastigote forms: IC50 macrophages/IC50 parasite form; for IC50: 72 h; for times SI exceeds the reference drug SI (all forms): extracellular and intracellular forms; for times SI exceeds the reference drug SI (all forms) / number of times that compound SI exceeds the reference drug SI, Promastigote forms: reference Glucantime; for number of times that compound SI exceeds the reference drug SI, Promastigote forms: in brackets
Procedure: as §5

[9] = tested on: L. infantum intracellular amastigote forms; assay: Intracellular amastigote forms assay in J774.2 macrophages; format: cell-based, Leishmania infantum; conditions: for SI Intracellular amastigote forms / number of times that compound SI exceeds the reference drug SI, Intracellular amastigote forms: L. infantum; for SI Intracellular amastigote forms: IC50 macrophages/IC50 parasite form; for number of times that compound SI exceeds the reference drug SI, Intracellular amastigote forms: in brackets, reference Glucantime
Procedure: as §7, §8

[10] = tested on: L. braziliensis promastigotes; assay: Ultrastructural alterations (TEM); format: cell-based, Leishmania braziliensis; conditions: IC25, 96 hours
Procedure: as §2, §3

## CC(=O)OC[C@H]1O[C@@H](Oc2cc(OC(C)=O)c3c(=O)c(O[C@@H]4O[C@H](COC(C)=O)[C@@H](OC(C)=O)[C@H](OC(C)=O)[C@H]4OC(C)=O)c(-c4ccc(OC(C)=O)cc4)oc3c2)[C@H](OC(C)=O)[C@@H](OC(C)=O)[C@@H]1OC(C)=O [Compound 6]
L. infantum
  decrease of average number of amastigotes per infected macrophage cell: 24%
  infection rate decrease, percentage of inhibition capacity: 71%
[1]
  ultrastructural alterations by TEM: induced empty vacuoles, lipid vacuoles, and a large number of electrodense vesicles
[2]
  change in excreted catabolites: an increase in the excretion of succinate, and acetate, followed by malate, alanine, lactate and ethanol
[3]
  SI Promastigote forms: >31.9
  number of times that compound SI exceeds the reference drug SI, Promastigote forms: 53
[3]; Leishmania braziliensis
  IC50: 31.3 ± 3 µM
L. braziliensis
  decrease of average number of amastigotes per infected macrophage cell: 69%
  infection rate decrease, percentage of inhibition capacity: 82%
[4]
  change in excreted catabolites: decreases in the excretion of acetate
[5]
  SI Axenic amastigote forms: >32.8
  number of times that compound SI exceeds the reference drug SI, Axenic amastigote forms: 55
[5]; Leishmania infantum
  IC50: 30.5 ± 2.3 µM
[6]
  SI Intracellular amastigote forms: >32.9
  number of times that compound SI exceeds the reference drug SI, Intracellular amastigote forms: 66
[6]; Leishmania braziliensis
  IC50: 30.4 ± 2.7 µM
J774.2 macrophages; Mus musculus, J774.2, 72 h
  IC50: > 1000 µM
[7]
  SI Axenic amastigote forms: >35.7
  number of times that compound SI exceeds the reference drug SI, Axenic amastigote forms: 71
[7]; Leishmania braziliensis
  IC50: 28 ± 1.6 µM
[8]
  SI Promastigote forms: >43.3
  times SI exceeds the reference drug SI (all forms): more than 50 times
  number of times that compound SI exceeds the reference drug SI, Promastigote forms: 54
[8]; Leishmania infantum
  IC50: 23.1 ± 4.6 µM
[9]
  SI Intracellular amastigote forms: 24.8
  number of times that compound SI exceeds the reference drug SI, Intracellular amastigote forms: 50

## paeonoside [Compound 4]
L. infantum
  decrease of average number of amastigotes per infected macrophage cell: 37%
  infection rate decrease, percentage of inhibition capacity: 77%
[1]
  ultrastructural alterations by TEM: many of the parasites appeared dead, while another showed pronounced vacuolization
[2]
  change in excreted catabolites: an increase in the excretion of succinate, and acetate, followed by malate, alanine, lactate and ethanol
[3]
  IC50: 28.1 ± 5.2 µM
  SI Promastigote forms: 35.6
  number of times that compound SI exceeds the reference drug SI, Promastigote forms: 59
L. braziliensis
  decrease of average number of amastigotes per infected macrophage cell: 61%
  infection rate decrease, percentage of inhibition capacity: 68%
[5]
  IC50: 26.9 ± 1.4 µM
  SI Axenic amastigote forms: 37.2
  number of times that compound SI exceeds the reference drug SI, Axenic amastigote forms: 62
[6]
  IC50: 32.7 ± 2.1 µM
  SI Intracellular amastigote forms: 30.6
  number of times that compound SI exceeds the reference drug SI, Intracellular amastigote forms: 61
J774.2 macrophages
  IC50: > 1000 µM
[7]
  IC50: 23.7 ± 2.1 µM
  SI Axenic amastigote forms: 42.2
  number of times that compound SI exceeds the reference drug SI, Axenic amastigote forms: 84
[10]
  ultrastructural alterations by TEM: expansion of the kinetoplast, which appeared swollen
[8]
  IC50: 25.1 ± 1.9 µM
  SI Promastigote forms: 39.8
  times SI exceeds the reference drug SI (all forms): more than 50 times
  number of times that compound SI exceeds the reference drug SI, Promastigote forms: 50
[9]; L. infantum in J774.2 macrophages, 72 h
  IC50: 31.4 ± 2 µM
[9]
  SI Intracellular amastigote forms: 31.8
  number of times that compound SI exceeds the reference drug SI, Intracellular amastigote forms: 64
